In patent publication US8436043B2 (Takeda Pharmaceutical Company Limited, priority 2008, dated 2013):

The compounds below were run against T1, human glucagon receptor (Homo sapiens, UniProt P47871) (assay: Glucagon binding inhibitory activity ([125I]-glucagon binding to glucagon receptor membrane protein)). Conditions: test compound 10 μM; 0.4% DMSO = 0%, non-labeled glucagon 1 μM = 100%; read-out: inhibitory rate (%) at 10 μM.
T1 construct: made in house; host or cells: FreeStyle CHO cells, transient transfection with pMSRαneo/hGCGR; membrane fraction (35,000 rpm pellet)
Method: The glucagon binding inhibitory action of the compound of the present invention was evaluated by the following method.
(1) Cloning of Human Glucagon Receptor Gene
Human glucagon receptor gene was cloned by PCR reaction using human pancreas Marathon-ready cDNA (Clontech) as a template and the following primer set.
PCR reaction was performed using Advantage 2 polymerase (Clontech) and according to the attached protocol. The obtained PCR product was electrophoresed on an agarose gel (1%). An about 1.4 kb of DNA fragment containing a glucagon receptor gene was recovered from the gel and digested with restriction enzymes EcoRI and NotI. DNA treated with the restriction enzymes was electrophoresed on an agarose gel (1%). An about 1.4 kb of DNA fragment was recovered and ligated to plasmid pMSRαneo digested with restriction enzymes EcoRI and NotI to construct a human-type glucagon receptor expression plasmid DNA “pMSRαneo/hGCGR”.
(2) Preparation of Glucagon Receptor Membrane Protein
A human-type glucagon receptor was expressed using FreeStyle CHO Expression System (Invitrogen). A transient expression in FreeStyle CHO cell was performed using a human-type glucagon receptor expression plasmid DNA “pMSRαneo/hGCGR” and according to the manual attached to the FreeStyle CHO Expression System. The above-mentioned DNA was transfected and the cultured with shaking for 2 days (37° C., 8% CO2, 125 rpm). 2400 ml of culture medium was centrifuged at 2,000 rpm for 10 min and the cells were collected. The collected cells were washed with PBS, suspended in homogenate buffer [10 mM NaHCO3 (pH 7.4), 1 mM EDTA, Complete EDTA-free (Roche, 1 tablet/50 ml)] and disrupted by polytron cell disrupter (Kinematica AG). Disruption solution was centrifuged at 2,000 rpm for 10 min and the supernatant was collected.
(3) Measurement of Glucagon Binding Inhibitory Activity
The plate was stood for 90 min at room temperature. The reaction solution was transferred from the reaction plate to a 96 well unifilter GF/C plate (Perkin Elmer Inc.) using a cell harvester (Perkin Elmer Inc.) and the membrane fraction was collected on the filter by suction. The filter was presoaked in 2 mg/ml of polyethyleneimine to prevent non-specific adsorption of labeled ligand. The filter was washed 4 times with a reaction buffer and dried for 2 hr at 42° C. To each well was added 25 μl of scintillator (MicroScint0; Perkin Elmer Inc.), and the fluorescence amount was measured using a microplate scintillation counter (TopCount NXT™; Perkin Elmer Inc.).
In addition, the inhibitory rate (%) of the well added with the test compound (10 μM; containing 0.4% DMSO) was calculated, using the reaction rate of the well added only with 0.4% DMSO as 0% inhibitory rate, and the reaction rate of the well added with non-labeled glucagon (final concentration 1 μM) as 100% inhibitory rate.

T1 sequence (P47871 26-477): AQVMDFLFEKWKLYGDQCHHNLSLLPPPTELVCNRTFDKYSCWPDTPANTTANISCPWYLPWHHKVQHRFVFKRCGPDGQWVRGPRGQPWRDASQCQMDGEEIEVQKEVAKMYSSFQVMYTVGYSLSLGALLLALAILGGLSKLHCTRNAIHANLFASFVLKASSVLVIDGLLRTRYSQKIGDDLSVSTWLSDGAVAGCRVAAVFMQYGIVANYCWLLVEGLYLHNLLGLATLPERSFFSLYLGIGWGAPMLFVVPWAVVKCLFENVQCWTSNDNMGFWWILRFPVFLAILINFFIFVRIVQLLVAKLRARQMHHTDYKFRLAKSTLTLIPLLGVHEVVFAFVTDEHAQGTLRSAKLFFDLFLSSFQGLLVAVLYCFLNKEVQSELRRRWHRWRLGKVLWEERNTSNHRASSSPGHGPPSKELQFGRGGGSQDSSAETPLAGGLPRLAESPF

Compound | inhibition at 10 µM
CCCCCCC(Nc1ccc(C(=O)N(C)CCC(=O)O)cc1)c1cc2cc(Cl)ccc2n1-c1cccc(C(F)(F)F)c1 (stereo not shown) [Example A107, 3-[({4-[(1-{5-chloro-1-[3-(trifluoromethyl)phenyl]-1H-indol-2-yl}heptyl)amino]phenyl}carbonyl)(methyl)amino]propanoic acid] | 74%
COCc1nn(-c2cc(C(F)(F)F)ccn2)cc1C(Nc1ccc(C(=O)N(C)CCC(=O)O)cc1)C1CCCCC1 (stereo not shown) [Example 89, 3-[({4-[(cyclohexyl{3-(methoxymethyl)-1-[4-(trifluoromethyl)pyridin-2-yl]-1H-pyrazol-4-yl}methyl)amino]phenyl}carbonyl)(methyl)amino]propanoic acid] | 62%
CCc1nn(-c2ccc(OC)cc2)cc1C(Nc1ccc(C(=O)NCCC(=O)O)cc1)C1CCCCC1 (stereo not shown) [Example 50, 3-({[4-({cyclohexyl[3-ethyl-1-(4-methoxyphenyl)-1H-pyrazol-4-yl]methyl}amino)phenyl]carbonyl}amino)propanoic acid] | 68%
CC(C)Oc1nn(-c2ccc(OC(F)(F)F)cc2)cc1C(Nc1ccc(C(=O)NCCC(=O)O)cc1)C1CCCCC1 (stereo not shown) [Example 64, 3-[({4-[(cyclohexyl{3-(1-methylethoxy)-1-[4-(trifluoromethoxy)phenyl]-1H-pyrazol-4-yl}methyl)amino]phenyl}carbonyl)amino]propanoic acid] | 70%
CN(CCC(=O)O)C(=O)c1ccc(NC(c2cc3ccccc3s2)C2CCCCC2)cc1 (stereo not shown) [Example A5, 3-{[(4-{[1-benzothiophen-2-yl(cyclohexyl)methyl]amino}phenyl)carbonyl](methyl)amino}-propanoic acid] | 77%
CCC(CC)C(Nc1ccc(C(=O)NCCC(=O)O)cc1)c1oc2ccc(F)cc2c1C (stereo not shown) [Example A191, 3-{[(4-{[2-ethyl-1-(5-fluoro-3-methyl-1-benzofuran-2-yl)butyl]amino}phenyl)carbonyl]amino}propanoic acid] | 82%
COc1ncccc1-c1ccc2oc(C(Nc3ccc(C(=O)N(C)CCC(=O)O)cc3)C3CCCCC3)c(C)c2c1 (stereo not shown) [Example A177, 3-[{[4-({cyclohexyl[5-(2-methoxypyridin-3-yl)-3-methyl-1-benzofuran-2-yl]methyl}amino)phenyl]carbonyl}(methyl)amino]propanoic acid] | 90%
COc1cccc(-n2cc(C(Nc3ccc(C(=O)N(C)CCC(=O)O)cc3)C3CCCCC3)c(C)n2)c1 (stereo not shown) [Example 70, 3-[{[4-({cyclohexyl[1-(3-methoxyphenyl)-3-methyl-1H-pyrazol-4-yl]methyl}amino)phenyl]carbonyl}(methyl)amino]propanoic acid] | 75%
COc1ccc2nc(C(Nc3ccc(C(=O)NCCC(=O)O)cc3)C3CCCCC3)n(C)c2c1 (stereo not shown) [Example A116, 3-{[(4-{[cyclohexyl(6-methoxy-1-methyl-1H-benzimidazol-2-yl)methyl]amino}phenyl)carbonyl]amino}propanoic acid] | 58%
Cc1c(C(Nc2ccc(C(=O)NCCC(=O)O)cc2)C2CCCC2)oc2ccc(F)cc12 (stereo not shown) [Example A190, 3-{[(4-{[cyclopentyl(5-fluoro-3-methyl-1-benzofuran-2-yl)methyl]amino}phenyl)carbonyl]amino}propanoic acid] | 86%
CCc1oc2ccccc2c1C(Nc1ccc(C(=O)NCCC(=O)O)cc1)C1CCCCC1 (stereo not shown) [Example A29, 3-{[(4-{[cyclohexyl(2-ethyl-1-benzofuran-3-yl)methyl]amino}phenyl)carbonyl]amino}propanoic acid] | 77%
Cc1c(C(Nc2ccc(C(=O)NCCC(=O)O)cc2)C2CCCCC2)oc2ccc(OCCCS(C)(=O)=O)cc12 (stereo not shown) [Example A153, 3-[({4-[(cyclohexyl{3-methyl-5-[3-(methylsulfonyl)propoxy]-1-benzofuran-2-yl}methyl)amino]phenyl}carbonyl)amino]propanoic acid] | 74%
CC(C)Oc1nn(-c2ccc(OC(F)(F)F)cc2)cc1C(Nc1ccc(C(=O)N(C)CCC(=O)O)cc1)C1CCCCC1 (stereo not shown) [Example 65, 3-[({4-[(cyclohexyl{3-(1-methylethoxy)-1-[4-(trifluoromethoxy)phenyl]-1H-pyrazol-4-yl}methyl)amino]phenyl}carbonyl)(methyl)amino]propanoic acid] | 64%
Cc1c(C(Nc2ccc(C(=O)N(C)CCC(=O)O)cc2)C2CCCCC2)oc2ccc(NS(C)(=O)=O)cc12 (stereo not shown) [Example A111, 3-[({4-[(cyclohexyl{3-methyl-5-[(methylsulfonyl)amino]-1-benzofuran-2-yl}methyl)amino]phenyl}carbonyl)(methyl)amino]propanoic acid] | 70%
COc1ccccc1-n1cc(C(Nc2ccc(C(=O)N(C)CCC(=O)O)cc2)C2CCCCC2)c(C)n1 (stereo not shown) [Example 72, 3-[{[4-({[1-(2-methoxyphenyl)-3-methyl-1H-pyrazol-4-yl](cyclohexyl)methyl}amino)phenyl]carbonyl}(methyl)amino]-propanoic acid] | 51%
Cc1c(C(CC(C)C)Nc2ccc(C(=O)N(C)CCC(=O)O)cn2)sc2ccccc12 (stereo not shown) [Example A38, 3-{methyl[(6-{[3-methyl-1-(3-methyl-1-benzothiophen-2-yl)butyl]amino}pyridin-3-yl)carbonyl]amino}propanoic acid] | 56%
Cc1c(C(Nc2ccc(C(=O)N(C)CCC(=O)O)cc2)C2CCCCC2)oc2ccc(Oc3ncccc3C#N)cc12 (stereo not shown) [Example A198, 3-{[(4-{[{5-[(3-cyanopyridin-2-yl)oxy]-3-methyl-1-benzofuran-2-yl}(cyclohexyl)methyl]amino}phenyl)carbonyl](methyl)amino}-propanoic acid] | 87%
O=C(O)CCNC(=O)c1ccc(NC(c2cn(-c3ccc(OC(F)(F)F)cc3)nc2OCc2ccccc2)C2CCCCC2)cc1 (stereo not shown) [Example 60, 3-{[(4-{[{3-(benzyloxy)-1-[4-(trifluoromethoxy)phenyl]-1H-pyrazol-4-yl}(cyclohexyl)methyl]amino}phenyl)carbonyl]amino}propanoic acid] | 71%
Cc1c(C(Nc2ccc(C(=O)N(C)CCC(=O)O)cc2)C2CCCCC2)oc2ccc(NC(=O)c3ccccc3)cc12 (stereo not shown) [Example A129, 3-[({4-[(cyclohexyl{3-methyl-5-[(phenylcarbonyl)amino]-1-benzofuran-2-yl]methyl)amino}phenyl]carbonyl)(methyl)amino}propanoic acid] | 82%
CSCCCOc1ccc2oc(C(Nc3ccc(C(=O)N(C)CCC(=O)O)cc3)C3CCCCC3)c(C)c2c1 (stereo not shown) [Example A150, 3-[({4-[(cyclohexyl{3-methyl-5-[3-(methylsulfanyl)propoxy]-1-benzofuran-2-yl}methyl)amino]phenyl}carbonyl)(methyl)amino]propanoic acid] | 81%
CCc1c(C(CC(C)C)Nc2ccc(C(=O)NCCC(=O)O)cc2)oc2ccccc12 (stereo not shown) [Example A34, 3-{[(4-{[1-(3-ethyl-1-benzofuran-2-yl)-3-methylbutyl]amino}phenyl)carbonyl]amino}propanoic acid] | 75%
CCC(CC)C(Nc1ccc(C(=O)NCCC(=O)O)cc1)c1sc2ccccc2c1C (stereo not shown) [Example A134, 3-{[(4-{[2-ethyl-1-(3-methyl-1-benzothiophene-2-yl)butyl]amino}phenyl)carbonyl]amino}propanoic acid] | 82%
